# Laboratory results: patent US20210045385A1, “PYRIDAZINONE-SUBSTITUTED KETOXIMES AS HERBICIDES” (FMC Corporation, priority 2018, published 2021)
# Tests used:
# Assay type in all cases: in vivo
# [1] = system: ducksalad (Heteranhera limosa); experiment: Test B flooded paddy test, visual plant response rating; details: 250 g ai/ha, Flood, applied to paddy water, 2-leaf stage, evaluated after 13 to 15 days
# In short: (§1)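 Visual scores compare treated plants with controls after 13 to 15 days of greenhouse growth. Treatment was made into paddy water standing 3 cm above the soil, with plants at the 2-leaf stage and flooding maintained throughout.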
# rice (Oryza sativa) = experiment: as above; details: 250 g ai/ha, Flood, applied to paddy water, 2-leaf stage, evaluated after 13 to 15 days
# In short: as §1
# [2] = system: sedge, umbrella (small-flower umbrella sedge, Cyperus difformis); experiment: as above; details: 250 g ai/ha, Flood, applied to paddy water, 2-leaf stage, evaluated after 13 to 15 days
# In short: as §1
# [3] = system: barnyardgrass (Echinochloa crus-galli); experiment: as above; details: 250 g ai/ha, Flood, applied to paddy water, 2-leaf stage, evaluated after 13 to 15 days
# In short: as §1
# [4] = system: Italian ryegrass (Lolium multiflorum); experiment: Test A preemergence, visual plant response rating; details: approx. 10 days
# In short: (§2)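 Compared with untreated controls, treated plants received a visual injury score on a 0–100 scale around 10 days after application. The compound, in a non-phytotoxic solvent with surfactant, was given as a preemergence soil spray or postemergence at the one- to two-leaf stage.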
# [5] = system: ragweed (common ragweed, Ambrosia elatior); experiment: Test A preemergence, visual plant response rating; details: approx. 10 days
# In short: as §2
# [6] = system: foxtail, green (green foxtail, Setaria viridis); experiment: Test A preemergence, visual plant response rating; details: approx. 10 days
# In short: as §2
# kochia (Kochia scoparia) [7] = experiment: Test A preemergence, visual plant response rating; details: approx. 10 days
# In short: as §2
# [8] = system: barnyardgrass (Echinochloa crus-galli); experiment: Test A preemergence, visual plant response rating; details: approx. 10 days
# In short: as §2
# [9] = system: pigweed (Amaranthus retroflexus); experiment: Test A preemergence, visual plant response rating; details: approx. 10 days
# In short: as §2
# [10] = system: Italian ryegrass (Lolium multiflorum); experiment: Test A postemergence, visual plant response rating; details: for Ryegrass, Italian plant response rating (0 to 100 scale): 500 g ai/ha, postemergence, 0 is no effect, 100 is complete control; for Ryegrass, Italian plant response rating: Postemergence, 125 g ai/ha, 0 to 100 scale (0 no effect, 100 complete control)
# In short: as §2
# [11] = system: ragweed (common ragweed, Ambrosia elatior); experiment: Test A postemergence, visual plant response rating; details: for Ragweed plant response rating (0 to 100 scale): 500 g ai/ha, postemergence, 0 is no effect, 100 is complete control; for Ragweed plant response rating: Postemergence, 125 g ai/ha, 0 to 100 scale (0 no effect, 100 complete control)
# In short: as §2
# corn (Zea mays) = experiment: Test A postemergence, visual plant response rating; details: for Corn plant response rating (0 to 100 scale): 500 g ai/ha, postemergence, 0 is no effect, 100 is complete control; for Corn plant response rating: Postemergence, 125 g ai/ha, 0 to 100 scale (0 no effect, 100 complete control)
# In short: as §2
# [12] = system: foxtail, green (green foxtail, Setaria viridis); experiment: Test A postemergence, visual plant response rating; details: for Foxtail, Green plant response rating (0 to 100 scale): 500 g ai/ha, postemergence, 0 is no effect, 100 is complete control; for Foxtail, Green plant response rating: Postemergence, 125 g ai/ha, 0 to 100 scale (0 no effect, 100 complete control)
# In short: as §2
# [13] = system: blackgrass (Alopecurus myosuroides); experiment: Test A postemergence, visual plant response rating; details: for Blackgrass plant response rating (0 to 100 scale): 500 g ai/ha, postemergence, 0 is no effect, 100 is complete control; for Blackgrass plant response rating: Postemergence, 125 g ai/ha, 0 to 100 scale (0 no effect, 100 complete control)
# In short: as §2
# [14] = system: galium (catchweed bedstraw, Galium aparine); experiment: Test A postemergence, visual plant response rating; details: for Galium plant response rating (0 to 100 scale): 500 g ai/ha, postemergence, 0 is no effect, 100 is complete control; for Galium plant response rating: Postemergence, 125 g ai/ha, 0 to 100 scale (0 no effect, 100 complete control)
# In short: as §2
# kochia (Kochia scoparia) [15] = experiment: Test A postemergence, visual plant response rating; details: for Kochia plant response rating (0 to 100 scale): 500 g ai/ha, postemergence, 0 is no effect, 100 is complete control; for Kochia plant response rating: Postemergence, 125 g ai/ha, 0 to 100 scale (0 no effect, 100 complete control)
# In short: as §2
# [16] = system: barnyardgrass (Echinochloa crus-galli); experiment: Test A postemergence, visual plant response rating; details: for Barnyardgrass plant response rating (0 to 100 scale): 500 g ai/ha, postemergence, 0 is no effect, 100 is complete control; for Barnyardgrass plant response rating: Postemergence, 125 g ai/ha, 0 to 100 scale (0 no effect, 100 complete control)
# In short: as §2
# [17] = system: wheat (Triticum aestivum); experiment: Test A postemergence, visual plant response rating; details: for Wheat plant response rating (0 to 100 scale): 500 g ai/ha, postemergence, 0 is no effect, 100 is complete control; for Wheat plant response rating: Postemergence, 125 g ai/ha, 0 to 100 scale (0 no effect, 100 complete control)
# In short: as §2
# [18] = system: pigweed (Amaranthus retroflexus); experiment: Test A postemergence, visual plant response rating; details: for Pigweed plant response rating (0 to 100 scale): 500 g ai/ha, postemergence, 0 is no effect, 100 is complete control; for Pigweed plant response rating: Postemergence, 125 g ai/ha, 0 to 100 scale (0 no effect, 100 complete control)
# In short: as §2
SMILES,"Plant response rating, Ducksalad (0 to 100 scale, 0 is no effect, 100 is complete control) [1]","Plant response rating, Rice (0 to 100 scale, 0 is no effect, 100 is complete control) (rice (Oryza sativa))","Plant response rating, Sedge, Umbrella (0 to 100 scale, 0 is no effect, 100 is complete control) [2]","Plant response rating, Barnyardgrass (0 to 100 scale, 0 is no effect, 100 is complete control) [3]","Ryegrass, Italian plant response rating (0 to 100 scale) ([4]; 125 g ai/ha Preemergence)","Ryegrass, Italian plant response rating (0 to 100 scale) ([4]; 500 g ai/ha Preemergence)",Ragweed plant response rating (0 to 100 scale) ([5]; 125 g ai/ha Preemergence),Ragweed plant response rating (0 to 100 scale) ([5]; 500 g ai/ha Preemergence),"Foxtail, Green plant response rating (0 to 100 scale) ([6]; 125 g ai/ha Preemergence)","Foxtail, Green plant response rating (0 to 100 scale) ([6]; 500 g ai/ha Preemergence)",Kochia plant response rating (0 to 100 scale) (kochia (Kochia scoparia) [7]; 125 g ai/ha Preemergence),Kochia plant response rating (0 to 100 scale) (kochia (Kochia scoparia) [7]; 500 g ai/ha Preemergence),Barnyardgrass plant response rating (0 to 100 scale) ([8]; 125 g ai/ha Preemergence),Barnyardgrass plant response rating (0 to 100 scale) ([8]; 500 g ai/ha Preemergence),Pigweed plant response rating (0 to 100 scale) ([9]; 125 g ai/ha Preemergence),Pigweed plant response rating (0 to 100 scale) ([9]; 500 g ai/ha Preemergence),"Ryegrass, Italian plant response rating (0 to 100 scale) [10]","Ryegrass, Italian plant response rating [10]",Ragweed plant response rating (0 to 100 scale) [11],Ragweed plant response rating [11],also measured
CCO/N=C(/c1cccc(C)c1C)c1c(O)c(C)nn(C)c1=O [Compound 24],0,0,0,0,10,50,30,60,20,60,0,0,0,10,20,40,40,10,60,30,"Corn plant response rating (0 to 100 scale) (corn (Zea mays)): 0; Corn plant response rating (corn (Zea mays)): 0; Foxtail, Green plant response rating (0 to 100 scale) [12]: 20; Foxtail, Green plant response rating [12]: 0; Blackgrass plant response rating (0 to 100 scale) [13]: 40; Blackgrass plant response rating [13]: 10; Galium plant response rating (0 to 100 scale) [14]: 60; Galium plant response rating [14]: 50; Kochia plant response rating (0 to 100 scale) (kochia (Kochia scoparia) [15]): 20; Kochia plant response rating (kochia (Kochia scoparia) [15]): 0; Barnyardgrass plant response rating (0 to 100 scale) [16]: 30; Barnyardgrass plant response rating [16]: 0; Wheat plant response rating (0 to 100 scale) [17]: 0; Wheat plant response rating [17]: 0; Pigweed plant response rating (0 to 100 scale) [18]: 60; Pigweed plant response rating [18]: 30"
CCO/N=C(\c1cccc(C)c1C)c1c(O)c(C)nn(C)c1=O [Compound 25],0,0,0,0,10,30,30,90,0,60,0,0,0,0,90,40,40,10,40,20,"Corn plant response rating (0 to 100 scale) (corn (Zea mays)): 0; Corn plant response rating (corn (Zea mays)): 0; Foxtail, Green plant response rating (0 to 100 scale) [12]: 10; Foxtail, Green plant response rating [12]: 0; Blackgrass plant response rating (0 to 100 scale) [13]: 40; Blackgrass plant response rating [13]: 0; Galium plant response rating (0 to 100 scale) [14]: 20; Galium plant response rating [14]: 20; Kochia plant response rating (0 to 100 scale) (kochia (Kochia scoparia) [15]): 10; Kochia plant response rating (kochia (Kochia scoparia) [15]): 0; Barnyardgrass plant response rating (0 to 100 scale) [16]: 30; Barnyardgrass plant response rating [16]: 0; Wheat plant response rating (0 to 100 scale) [17]: 0; Wheat plant response rating [17]: 0; Pigweed plant response rating (0 to 100 scale) [18]: 50; Pigweed plant response rating [18]: 40"
CO/N=C(\c1c(O)c(C)nn(C)c1=O)c1cccc2ccccc12 [Compound 26],0,0,0,0,70,100,90,100,70,100,50,80,40,80,100,100,70,70,100,90,"Corn plant response rating (0 to 100 scale) (corn (Zea mays)): 30; Corn plant response rating (corn (Zea mays)): 0; Foxtail, Green plant response rating (0 to 100 scale) [12]: 80; Foxtail, Green plant response rating [12]: 60; Blackgrass plant response rating (0 to 100 scale) [13]: 90; Blackgrass plant response rating [13]: 80; Galium plant response rating (0 to 100 scale) [14]: 100; Galium plant response rating [14]: 90; Kochia plant response rating (0 to 100 scale) (kochia (Kochia scoparia) [15]): 90; Kochia plant response rating (kochia (Kochia scoparia) [15]): 80; Barnyardgrass plant response rating (0 to 100 scale) [16]: 60; Barnyardgrass plant response rating [16]: 50; Wheat plant response rating (0 to 100 scale) [17]: 10; Wheat plant response rating [17]: 0; Pigweed plant response rating (0 to 100 scale) [18]: 90; Pigweed plant response rating [18]: 60"
CO/N=C(/c1cccc(C)c1)c1c(O)c(C2CC2)nn(C)c1=O [Compound 28],0,0,0,0,0,0,0,10,0,30,0,0,0,0,0,10,10,0,40,0,"Corn plant response rating (0 to 100 scale) (corn (Zea mays)): 0; Corn plant response rating (corn (Zea mays)): 0; Foxtail, Green plant response rating (0 to 100 scale) [12]: 10; Foxtail, Green plant response rating [12]: 0; Blackgrass plant response rating (0 to 100 scale) [13]: 40; Blackgrass plant response rating [13]: 0; Galium plant response rating (0 to 100 scale) [14]: 60; Galium plant response rating [14]: 20; Kochia plant response rating (0 to 100 scale) (kochia (Kochia scoparia) [15]): 0; Kochia plant response rating (kochia (Kochia scoparia) [15]): 0; Barnyardgrass plant response rating (0 to 100 scale) [16]: 30; Barnyardgrass plant response rating [16]: 0; Wheat plant response rating (0 to 100 scale) [17]: 0; Wheat plant response rating [17]: 0; Pigweed plant response rating (0 to 100 scale) [18]: 40; Pigweed plant response rating [18]: 30"
